# ChEMBL document CHEMBL1201862, “PubChem BioAssay data set” (2004)
#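 Grown in 96-well plates, cells were treated for 48 hours with each compound at five concentrations. Insufficient inhibition: endpoint recorded as highest concentration tested. GI50 marks 50% less growth.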 Active and inactive are the calls of the source. Cut-off read from the data, not from the text of the source: active = GI50 up to about 1.1 µM and inactive = higher.
# What was measured:
# Test in all cases: growth of human tumour cells (NCI), 48 h
# DMS-114 = test system: DMS-114
# DMS-273 = test system: DMS-273
# HOP-18 = test system: HOP-18
# KM-20L2 = test system: KM-20L2
# LXFL 529 = test system: LXFL 529
# M19-MEL = test system: M19-MEL
# RXF 631 = test system: RXF 631
# XF498 = test system: XF498
# SNB-78 = test system: SNB-78
Compound,GI50 (DMS-114),GI50 (DMS-273),GI50 (HOP-18),GI50 (KM-20L2),GI50 (LXFL 529),GI50 (M19-MEL),GI50 (RXF 631),GI50 (XF498),GI50 (SNB-78)
COc1ccccc1NC(=O)C1=C(C)NC(C)=C(C(=O)Nc2ccccc2OC)C1c1ccccc1Cl,45.5 µM (inactive),> 100 µM (inactive),> 100 µM (inactive),56.5 µM (inactive),> 100 µM (inactive),> 100 µM (inactive),> 100 µM (inactive),37.7 µM (inactive),
Cc1c(C)c2ccc(OC(C)C(=O)O)cc2oc1=O (stereo unspecified),> 100 µM (inactive),,> 100 µM (inactive),> 100 µM (inactive),> 100 µM (inactive),> 100 µM (inactive),> 100 µM (inactive),35 µM (inactive),> 100 µM (inactive)
Clc1cccc(N2CCN(CCCN3CCc4c([nH]c5ccccc45)C3c3cccnc3)CC2)c1 (stereo unspecified),5.52 µM (inactive),5.98 µM (inactive),14.3 µM (inactive),4.28 µM (inactive),6.52 µM (inactive),10.5 µM (inactive),3.63 µM (inactive),4.58 µM (inactive),5.69 µM (inactive)
C/N=c1/ss/c(=N\C(SC)=[N+](C)C)n1C.[O-][Cl+3]([O-])([O-])[O-],,> 100 µM (inactive),,,> 100 µM (inactive),,8.13 µM (inactive),> 100 µM (inactive),> 100 µM (inactive)
O=C1C(c2ccccc2)=C(c2ccccc2)C(c2ccccc2)/C1=C1\C(=O)C(c2ccccc2)=C(c2ccccc2)C1c1ccccc1 (stereo unspecified),> 100 µM (inactive),> 100 µM (inactive),> 100 µM (inactive),> 100 µM (inactive),> 100 µM (inactive),> 100 µM (inactive),,,> 100 µM (inactive)
COC12OCCN(C)C1=CC(=O)C1N=NCC12 (stereo unspecified),> 100 µM (inactive),> 100 µM (inactive),> 100 µM (inactive),,> 100 µM (inactive),> 100 µM (inactive),> 100 µM (inactive),,> 100 µM (inactive)
C/C=C/C(=O)[C@@H](O)C(C)C,,> 100 µM (inactive),,> 100 µM (inactive),> 100 µM (inactive),> 100 µM (inactive),,,> 100 µM (inactive)
O=C1C=CC(=O)C12CCc1ccccc12,> 100 µM (inactive),> 100 µM (inactive),> 33.2 µM (inactive),> 100 µM (inactive),> 100 µM (inactive),> 100 µM (inactive),> 100 µM (inactive),> 100 µM (inactive),> 100 µM (inactive)
Clc1ccc(-c2c(C3=NCCCN3)nnn2-c2ccccc2)cc1,47.2 µM (inactive),> 100 µM (inactive),> 100 µM (inactive),33.9 µM (inactive),> 100 µM (inactive),69.5 µM (inactive),75.3 µM (inactive),> 100 µM (inactive),> 100 µM (inactive)
CC(=O)Nc1ccc(SC#N)c2c(NC(C)=O)cccc12,43.1 µM (inactive),> 100 µM (inactive),45.2 µM (inactive),> 100 µM (inactive),28 µM (inactive),> 100 µM (inactive),> 82.8 µM (inactive),,99.3 µM (inactive)
CC(=O)OCCOCNC(=S)N/N=C/c1ccc([N+](=O)[O-])s1,7.85 µM (inactive),28.1 µM (inactive),> 100 µM (inactive),32.4 µM (inactive),73.3 µM (inactive),18.2 µM (inactive),,> 100 µM (inactive),> 100 µM (inactive)
CCOC(=O)C1(Br)S(=O)(=O)OCCOS1(=O)=O,> 100 µM (inactive),> 100 µM (inactive),,> 100 µM (inactive),,> 100 µM (inactive),,> 100 µM (inactive),> 100 µM (inactive)
O=C1C[S+]([O-])c2ccccc2N1 (stereo unspecified),,16.8 µM (inactive),> 100 µM (inactive),> 100 µM (inactive),> 100 µM (inactive),> 100 µM (inactive),> 100 µM (inactive),> 100 µM (inactive),> 100 µM (inactive)
CCOC(=O)C1=C(Nc2ccc(Cl)cc2Cl)OCC1=O,,> 100 µM (inactive),,> 100 µM (inactive),> 100 µM (inactive),> 100 µM (inactive),> 100 µM (inactive),> 100 µM (inactive),> 100 µM (inactive)
O=C(O)C12CC3CC(CC(F)(C3)C1)C2,> 100 µM (inactive),> 100 µM (inactive),,> 100 µM (inactive),> 100 µM (inactive),> 100 µM (inactive),,> 100 µM (inactive),32.2 µM (inactive)
CCOC(=N)CC(=O)Nc1cccc(C)c1C,,> 100 µM (inactive),,> 100 µM (inactive),> 100 µM (inactive),> 100 µM (inactive),> 100 µM (inactive),> 100 µM (inactive),40.3 µM (inactive)
Cc1cccc(C)c1N1C(=O)C(=O)C(c2nc3ccccc3s2)/C(=N/NC(=O)c2ccccc2O)C1=O (stereo unspecified),11.6 µM (inactive),4.74 µM (inactive),21.7 µM (inactive),32.6 µM (inactive),10.2 µM (inactive),13.1 µM (inactive),24.5 µM (inactive),12.4 µM (inactive),5.45 µM (inactive)
CCC1(CN(C)C)CC/C(=C\c2ccc(OC)cc2)C1=O (stereo unspecified),54.1 µM (inactive),> 100 µM (inactive),> 100 µM (inactive),> 100 µM (inactive),94 µM (inactive),> 100 µM (inactive),62.7 µM (inactive),,> 100 µM (inactive)
CCCCCCCCCCCCCCCC(=O)N[C@H]1CCc2cc(OC)c(OC)c(OC)c2-c2ccc(SC)c(=O)cc21,,,0.933 µM (active),0.186 µM (active),0.486 µM (active),0.458 µM (active),,0.769 µM (active),0.492 µM (active)
